Experimental data taken from ChEMBL document CHEMBL3885861, “Open TG-GATES”.

Organism: Rattus norvegicus
Assay: Open TG-GATES - Regimen: Daily Repeat
Type: toxicity, organism-based, Sprague-Dawley
Set-up: regimen Daily Repeat, gender Male, age 6 weeks
Details: in vivo, po, 0 mg/kg, route gavage, dose level Control; for APTT / Bas / Eos / Fbg / Hb / Ht / Lym / MCH / MCHC / MCV / Mono / Neu / PT / Plat / RBC / Ret / WBC: tissue Blood
[1] = 72 h, tissue Kidney, time 3 day
[2] = 72 h, tissue Plasma, time 3 day

CCOC(=O)[C@H](CCc1ccccc1)N[C@@H](C)C(=O)N1CCC[C@H]1C(=O)O
TERMINAL_BW (72 h, time 3 day): 253.2 g
APTT (72 h, time 3 day): 16 s
Bas (72 h, time 3 day): 0%
Eos (72 h, time 3 day): 1%
Fbg (72 h, time 3 day): 242 mg/dL
Hb (72 h, time 3 day): 13.2 g/dL
Ht (72 h, time 3 day): 40.1%
Lym (72 h, time 3 day): 73.6%
MCH (72 h, time 3 day): 21 pg
MCHC (72 h, time 3 day): 32.9%
MCV (72 h, time 3 day): 63.9 fL
Mono (72 h, time 3 day): 7.8%
Neu (72 h, time 3 day): 17.4%
PT (72 h, time 3 day): 11.8 s
Plat (72 h, time 3 day): 123.1 x10_4/uL
RBC (72 h, time 3 day): 627.6 x10_4/ul
Ret (72 h, time 3 day): 6.6%
WBC (72 h, time 3 day): 111.6 x10_2/uL
KIDNEY_L [1]: 1.1 g
KIDNEY_R [1]: 1.1 g
KIDNEY_TOTAL [1]: 2.2 g
LIVER (72 h, tissue Liver, time 3 day): 12.4 g
A/G [2]: 1.8
ALP [2]: 993.8 IU/L
ALT [2]: 38.6 IU/L
AST [2]: 63.4 IU/L
BUN [2]: 19 mg/dL
CRE [2]: 0.5 mg/dL
Ca [2]: 11 mg/dL
Cl [2]: 105 meq/L
DBIL [2]: 0.022 mg/dL
GLC [2]: 209.8 mg/dL
IP [2]: 9 mg/dL
K [2]: 4.7 meq/L
LDH [2]: 82.2 IU/L
Na [2]: 141.4 meq/L
PL [2]: 149.6 mg/dL
RALB [2]: 3.8 g/dL
TBIL [2]: 0.4 mg/dL
TC [2]: 81 mg/dL
TG [2]: 114.6 mg/dL
TP [2]: 5.9 g/dL
gamma-GTP [2]: 1.2 IU/L
TERMINAL_BW ([…], time 7 day): 279.2 g
TERMINAL_BW ([…], time 14 day): 338.3 g
TERMINAL_BW ([…], time 28 day): 401.8 g
APTT ([…], time 7 day): 16.4 s
Bas ([…], time 7 day): 0%
Eos ([…], time 7 day): 1.2%
Fbg ([…], time 7 day): 227.8 mg/dL
Hb ([…], time 7 day): 13.9 g/dL
Ht ([…], time 7 day): 41.9%
Lym ([…], time 7 day): 78.8%
MCH ([…], time 7 day): 21.4 pg
MCHC ([…], time 7 day): 33.3%
MCV ([…], time 7 day): 64.6 fL
Mono ([…], time 7 day): 6%
Neu ([…], time 7 day): 14%
PT ([…], time 7 day): 11.6 s
Plat ([…], time 7 day): 121.8 x10_4/uL
RBC ([…], time 7 day): 649.6 x10_4/ul
Ret ([…], time 7 day): 6.5%
WBC ([…], time 7 day): 122 x10_2/uL
APTT ([…], time 14 day): 16.5 s
Bas ([…], time 14 day): 0%
Eos ([…], time 14 day): 1%
Fbg ([…], time 14 day): 232.8 mg/dL
Hb ([…], time 14 day): 13.9 g/dL
Ht ([…], time 14 day): 41.7%
Lym ([…], time 14 day): 79.2%
MCH ([…], time 14 day): 20.6 pg
MCHC ([…], time 14 day): 33.3%
MCV ([…], time 14 day): 61.8 fL
Mono ([…], time 14 day): 5.8%
Neu ([…], time 14 day): 13.4%
PT ([…], time 14 day): 11.4 s
Plat ([…], time 14 day): 115 x10_4/uL
RBC ([…], time 14 day): 675.8 x10_4/ul
Ret ([…], time 14 day): 4.1%
WBC ([…], time 14 day): 143.8 x10_2/uL
APTT ([…], time 28 day): 17.7 s
Bas ([…], time 28 day): 0%
Eos ([…], time 28 day): 1.2%
Fbg ([…], time 28 day): 249 mg/dL
Hb ([…], time 28 day): 15.3 g/dL
Ht ([…], time 28 day): 46.4%
